Laboratory results from US20180099931A1 (AbbVie S.à.r.l., priority 2016, published 2018).
Where two headings read alike, the source gives them in different places. Each block holds one compound with its values, some of them ahead of it.

Biological target: T1, F508delCFTR (Homo sapiens, UniProt P13569, DEL508-508)
T1 construct: expressed in transfected cells; host or cells: CFBE41o- human lung-derived epithelial cells (CFBE4lo-F508delCFTR-HRP), doxycycline-inducible
Assay: Cell Surface Expression-Horse Radish Peroxidase (CSE-HRP) Assay;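 on Maximum % activity (with co-corrector): co-corrector and positive control are both the same reference corrector at 2 µM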;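 on Maximum % activity (without co-corrector): percent of the 2 µM on-plate positive control corrector response above DMSO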
Type: cell-based
Settings: for Emax / Maximum % activity (with co-corrector): maximum at any tested concentration, normalized to on-plate positive control; for Emax: read-out: Maximum % activity (without co-corrector)

[1] = test compound without co-corrector
[2] = test compound without co-corrector, read-out: EC50 (without co-corrector)
[3] = with co-corrector (2 μM of 3-[(2R,4R)-4-({[1-(2,2-difluoro-1,3-benzodioxol-5-yl)cyclopropyl]carbonyl}amino)-7-methoxy-3,4-dihydro-2H-chromen-2-yl]benzoic acid)
[4] = with co-corrector (2 μM of 3-[(2R,4R)-4-({[1-(2,2-difluoro-1,3-benzodioxol-5-yl)cyclopropyl]carbonyl}amino)-7-methoxy-3,4-dihydro-2H-chromen-2-yl]benzoic acid), read-out: EC50 (with co-corrector)
[5] = CSE-HRP, test compound without co-corrector, read-out: EC50 (without co-corrector)
[6] = CSE-HRP, with co-corrector (2 μM of 3-[(2R,4R)-4-({[1-(2,2-difluoro-1,3-benzodioxol-5-yl)cyclopropyl]carbonyl}amino)-7-methoxy-3,4-dihydro-2H-chromen-2-yl]benzoic acid), read-out: EC50 (with co-corrector)
[7] = CSE-HRP, with co-corrector (2 μM)

T1 sequence (P13569 with tags, fused parts or gaps DEL508-508): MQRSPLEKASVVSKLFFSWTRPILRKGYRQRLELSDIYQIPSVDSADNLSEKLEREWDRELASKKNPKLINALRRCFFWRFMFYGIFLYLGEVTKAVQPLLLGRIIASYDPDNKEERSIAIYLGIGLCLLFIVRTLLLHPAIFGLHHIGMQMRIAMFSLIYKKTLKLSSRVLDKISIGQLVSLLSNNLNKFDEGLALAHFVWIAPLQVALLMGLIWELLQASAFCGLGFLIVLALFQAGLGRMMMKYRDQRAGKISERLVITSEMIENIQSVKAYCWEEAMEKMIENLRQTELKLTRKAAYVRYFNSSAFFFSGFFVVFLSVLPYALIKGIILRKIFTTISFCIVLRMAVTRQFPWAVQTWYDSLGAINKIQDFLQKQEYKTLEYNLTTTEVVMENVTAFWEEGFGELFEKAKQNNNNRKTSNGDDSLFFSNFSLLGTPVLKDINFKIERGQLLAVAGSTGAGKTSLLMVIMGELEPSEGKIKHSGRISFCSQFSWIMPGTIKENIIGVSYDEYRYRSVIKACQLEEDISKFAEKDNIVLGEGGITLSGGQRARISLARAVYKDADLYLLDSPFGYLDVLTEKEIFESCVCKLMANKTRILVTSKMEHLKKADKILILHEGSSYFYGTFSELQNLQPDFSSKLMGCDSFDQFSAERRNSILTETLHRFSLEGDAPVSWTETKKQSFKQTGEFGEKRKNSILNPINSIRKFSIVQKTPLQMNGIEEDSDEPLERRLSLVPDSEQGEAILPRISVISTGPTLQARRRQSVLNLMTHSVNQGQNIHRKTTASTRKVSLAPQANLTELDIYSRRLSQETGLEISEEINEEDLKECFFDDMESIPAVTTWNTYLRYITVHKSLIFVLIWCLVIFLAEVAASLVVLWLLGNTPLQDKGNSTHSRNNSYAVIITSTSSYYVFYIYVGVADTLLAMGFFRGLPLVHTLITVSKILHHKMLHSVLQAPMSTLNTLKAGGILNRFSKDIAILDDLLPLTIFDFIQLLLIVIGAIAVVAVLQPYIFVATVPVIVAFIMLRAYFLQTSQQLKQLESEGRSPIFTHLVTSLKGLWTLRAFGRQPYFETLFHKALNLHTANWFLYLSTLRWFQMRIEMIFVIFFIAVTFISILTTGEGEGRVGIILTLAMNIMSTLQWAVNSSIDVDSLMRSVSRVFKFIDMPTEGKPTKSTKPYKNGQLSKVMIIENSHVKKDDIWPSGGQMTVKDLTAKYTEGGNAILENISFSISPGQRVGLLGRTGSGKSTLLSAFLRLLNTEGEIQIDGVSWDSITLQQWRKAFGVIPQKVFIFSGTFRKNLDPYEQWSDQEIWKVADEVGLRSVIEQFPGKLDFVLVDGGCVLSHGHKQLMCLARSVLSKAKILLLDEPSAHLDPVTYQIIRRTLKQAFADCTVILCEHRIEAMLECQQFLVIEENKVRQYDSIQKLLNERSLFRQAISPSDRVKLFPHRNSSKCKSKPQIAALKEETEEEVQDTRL

Emax [1]: > 200%
EC50 [2]: 1000 to 10000 nM
Maximum % activity (with co-corrector) [3]: +++ (≥350)
EC50 [4]: 1000 to 10000 nM
Structure (SMILES): COc1ccc(C2(C)CCC2)cc1CN[C@H]1[C@H](C(C)(C)C)[C@@H](C(=O)O)N(C(=O)OC(C)C)[C@H]1c1ccccc1 [II-537]

EC50 [5]: 1000 to 10000 nM
EC50 [6]: 1000 to 10000 nM
Maximum % activity (with co-corrector) [7]: +++ (≥350)
Emax (CSE-HRP, without co-corrector): < 100%
Structure (SMILES): COc1ccc(-c2cccnc2)cc1CN[C@H]1[C@H](C(C)(C)C)[C@@H](C(=O)O)N(C(=O)C2CCCCC2)[C@H]1c1ccccc1 [II-284]

Emax [1]: > 200%
EC50 [2]: 1000 to 10000 nM
Maximum % activity (with co-corrector) [3]: +++ (≥350)
EC50 [4]: 1000 to 10000 nM
Structure (SMILES): COc1ncc(-c2ccccc2F)cc1CN[C@H]1[C@H](C(C)(C)C)[C@@H](C(=O)O)N(C(=O)C2CCCCC2)[C@H]1c1cccnc1N(C)C [II-405]

Emax [1]: 100 to 200%
EC50 [2]: 1000 to 10000 nM
Maximum % activity (with co-corrector) [3]: +++ (≥350)
EC50 [4]: 1000 to 10000 nM
Structure (SMILES): COc1ccc(C(C)(C)C)cc1CN[C@H]1[C@H](C(C)(C)C)[C@@H](C(=O)O)N(C(=O)[C@]2(C)CCc3c(OC)cccc32)[C@H]1c1ccccc1 [II-366]

EC50 [2]: 1000 to 10000 nM
EC50 [4]: 1000 to 10000 nM
Maximum % activity (with co-corrector) (with co-corrector (2 μM)): +++ (≥350)
Emax (without co-corrector): > 200%
Structure (SMILES): COc1ccc(C(C)(C)C)cc1CN[C@H]1[C@H](C(C)(C)C)[C@@H](C(=O)O)N(C(=O)Cc2ccsc2)[C@H]1c1ccccc1 [Example I-92]

EC50 [2]: 1000 to 10000 nM
EC50 [4]: 1000 to 10000 nM
Maximum % activity (with co-corrector) (with co-corrector (2 μM)): +++ (≥350)
Emax (without co-corrector): > 200%
Structure (SMILES): COc1ccc(C(C)(C)C)cc1CN[C@H]1[C@H](C(C)(C)C)[C@@H](C(=O)O)N(C(=O)C2CCOC2C(C)C)[C@H]1c1ccccc1 (stereo partly shown) [Example I-218]

Emax [1]: > 200%
EC50 [2]: 1000 to 10000 nM
EC50 [4]: < 1000 nM
Maximum % activity (with co-corrector) (with co-corrector (2 μM)): +++ (≥350)
Structure (SMILES): COc1ccc(C(C)(C)C)cc1CN[C@H]1[C@H](C(C)(C)C)[C@@H](C(=O)O)N(C(=O)C2CCCCC2C)[C@H]1c1cccnc1N(C)C (stereo partly shown) [III-205]

Emax [1]: < 100%
EC50 [2]: 1000 to 10000 nM
EC50 [4]: 1000 to 10000 nM
Maximum % activity (with co-corrector) (with co-corrector (2 μM)): ++ (≥150 and <350)
Structure (SMILES): COc1ccc(C(C)(C)C)cc1CN[C@H]1[C@H](C(C)(C)C)[C@@H](C(=O)O)N(C(=O)C2CCc3cc(F)ccc3O2)[C@H]1c1cccnc1N(C)C (stereo partly shown) [III-210]

Emax [1]: > 200%
EC50 [2]: 1000 to 10000 nM
Maximum % activity (with co-corrector) [3]: +++ (≥350)
EC50 [4]: 1000 to 10000 nM
Structure (SMILES): COc1ccc(C(F)(F)F)cc1CN[C@H]1[C@H](C(C)(C)C)[C@@H](C(=O)O)N(C(=O)OC(C)C)[C@H]1c1ccccc1 [II-553]

EC50 [5]: 1000 to 10000 nM
EC50 [6]: 1000 to 10000 nM
Maximum % activity (with co-corrector) [7]: +++ (≥350)
Emax (CSE-HRP, without co-corrector): > 200%
Structure (SMILES): COc1ccc(C(C)(C)C)cc1CN[C@H]1[C@H](C(C)(C)C)[C@@H](C(=O)O)N(C(=O)C2CC2(C)C)[C@H]1c1ccccc1 (stereo partly shown) [II-309]

EC50 [2]: 1000 to 10000 nM
EC50 [4]: 1000 to 10000 nM
Maximum % activity (with co-corrector) (with co-corrector (2 μM)): +++ (≥350)
Emax (without co-corrector): 100 to 200%
Structure (SMILES): COc1ncc(C(F)(F)F)cc1CN[C@H]1[C@H](C(C)(C)C)[C@@H](C(=O)O)N(C(=O)[C@@H]2CCCCO2)[C@H]1c1cccnc1N(C)C [Example I-208]

EC50 [2]: 1000 to 10000 nM
EC50 [4]: 1000 to 10000 nM
Maximum % activity (with co-corrector) (with co-corrector (2 μM)): +++ (≥350)
Emax (without co-corrector): 100 to 200%
Structure (SMILES): COc1ccc(C(C)(C)C)cc1CN[C@H]1[C@H](C(C)(C)C)[C@@H](C(=O)O)N(C(=O)[C@H](C)c2ccccc2)[C@H]1c1cccnc1N(C)C [Example I-233]

EC50 [5]: 1000 to 10000 nM
EC50 [6]: 1000 to 10000 nM
Maximum % activity (with co-corrector) [7]: +++ (≥350)
Emax (CSE-HRP, without co-corrector): < 100%
Structure (SMILES): COc1ccc(C(C)(C)C)cc1CN[C@H]1[C@H](C(C)(C)C)[C@@H](C(=O)O)N(C(=O)[C@@]2(C)COc3cc4c(cc32)OC(F)(F)O4)[C@H]1c1cccnc1OC [Example I-254]

The next lines start with the compound.

Structure (SMILES): COc1ncc(C(F)(F)F)cc1CN[C@H]1[C@H](C23CC(C2)C3)[C@@H](C(=O)O)N(C(=O)C2CCCCC2)[C@H]1c1ccccc1 [Example 57, (2S,3S,4S,5S)-3-(bicyclo[1.1.1.1]pentan-1-yl)-1-(cyclohexanecarbonyl)-4-({[2-methoxy-5-(trifluoromethyl)pyridin-3-yl]methyl}amino)-5-phenylpyrrolidine-2-carboxylic acid]
EC50 [2]: < 1000 nM
EC50 [4]: < 1000 nM
Maximum % activity (with co-corrector) (with co-corrector (2 μM)): +++ (≥350)
Emax (without co-corrector): 100 to 200%

Structure (SMILES): CC(C)(C)[C@H]1[C@H](Nc2cccc(C(F)(F)F)c2)[C@H](c2ccccc2)N(C(=O)C2CCCCC2)[C@@H]1C(=O)O [Example I-56]
EC50 [2]: < 1000 nM
EC50 [4]: < 1000 nM
Maximum % activity (with co-corrector) (with co-corrector (2 μM)): +++ (≥350)
Emax (without co-corrector): < 100%

Structure (SMILES): COc1ncc(C2CCC2)cc1CN[C@H]1[C@H](C(C)(C)C)[C@@H](C(=O)O)N(C(=O)c2ccc3c(c2)OCCO3)[C@H]1c1ccccc1 [II-475]
Emax [1]: < 100%
EC50 [2]: 1000 to 10000 nM
Maximum % activity (with co-corrector) [3]: ++ (≥150 and <350)
EC50 [4]: 1000 to 10000 nM

Structure (SMILES): COc1ncc(C2CCC2)cc1CN(C)[C@H]1[C@H](C(C)(C)C)[C@@H](C(=O)O)N(C(=O)[C@@H]2CCCCO2)[C@H]1c1ccccc1C(C)C [Example 119, (2S,3S,4S,5S)-3-tert-butyl-4-{[(5-cyclobutyl-2-methoxypyridin-3-yl)methyl](methyl)amino}-1-[(2S)-oxane-2-carbonyl]-5-[2-(propan-2-yl)phenyl]pyrrolidine-2-carboxylic acid]
EC50 [2]: < 1000 nM
EC50 [4]: < 1000 nM
Maximum % activity (with co-corrector) (with co-corrector (2 μM)): +++ (≥350)
Emax (without co-corrector): > 200%

Structure (SMILES): COc1cc(C(F)(F)F)ccc1CN[C@@H]1[C@@H](C(C)(C)C)[C@H](C(=O)O)N(C(=O)C2CCCCO2)[C@@H]1c1ccccc1N(C)C (mixture of isomers) [Example I-25]
EC50 [2]: 1000 to 10000 nM
EC50 [4]: < 1000 nM
Maximum % activity (with co-corrector) (with co-corrector (2 μM)): +++ (≥350)
Emax (without co-corrector): > 200%

Structure (SMILES): COc1ccc(C2(C#N)CC2)cc1CN[C@H]1[C@H](C(C)(C)C)[C@@H](C(=O)O)N(C(=O)C2CCCCC2)[C@H]1c1ccccc1 [II-400]
Emax [1]: 100 to 200%
EC50 [2]: 1000 to 10000 nM
Maximum % activity (with co-corrector) [3]: +++ (≥350)
EC50 [4]: 1000 to 10000 nM

Structure (SMILES): COc1cc(C(F)(F)F)cc(N(C)[C@@H]2[C@@H](C(C)(C)C)[C@H](C(=O)O)N(C(=O)C3CCCCC3)[C@@H]2c2ccccc2)n1 (racemic) [III-17]
Emax [1]: < 100%
EC50 [2]: > 10000 nM
Maximum % activity (with co-corrector) [3]: ++ (≥150 and <350)
EC50 [4]: 1000 to 10000 nM

Structure (SMILES): COc1ccc(C(F)(F)F)cc1CN[C@H]1[C@H](C(C)(C)C)[C@@H](C(=O)O)N(C(=O)[C@@H]2CCCCO2)[C@H]1c1cccc2c1OCC2 [Example I-299]
EC50 [5]: 1000 to 10000 nM
EC50 [6]: 1000 to 10000 nM
Maximum % activity (with co-corrector) [7]: +++ (≥350)
Emax (CSE-HRP, without co-corrector): 100 to 200%

Structure (SMILES): COc1ncc(C(F)(F)F)cc1N[C@H]1[C@H](C(C)(C)C)[C@@H](C(=O)O)N(C(=O)[C@@H]2CCCC[C@H]2C(F)(F)F)[C@H]1c1cccnc1N(C)C [II-485]
Emax [1]: < 100%
EC50 [2]: 1000 to 10000 nM
Maximum % activity (with co-corrector) [3]: ++ (≥150 and <350)
EC50 [4]: 1000 to 10000 nM

Structure (SMILES): COc1ccc(Cl)cc1CN[C@H]1[C@H](C(C)(C)C)[C@@H](C(=O)O)N(C(=O)C2CCCCC2)[C@H]1c1ccccc1OC [Example I-57]
EC50 [2]: 1000 to 10000 nM
EC50 [4]: 1000 to 10000 nM
Maximum % activity (with co-corrector) (with co-corrector (2 μM)): +++ (≥350)
Emax (without co-corrector): 100 to 200%

Structure (SMILES): COc1ncc(C2CCC2)cc1CN[C@H]1[C@H](C(C)(C)C)[C@@H](C(=O)O)N(C(=O)C2CCc3cc(F)ccc3O2)[C@H]1c1ccccc1 (stereo partly shown) [II-476]
Emax [1]: 100 to 200%
EC50 [2]: 1000 to 10000 nM
Maximum % activity (with co-corrector) [3]: +++ (≥350)
EC50 [4]: 1000 to 10000 nM

Structure (SMILES): COc1cc(C(F)(F)F)ccc1CN[C@H]1[C@H](C(C)(C)C)[C@@H](C(=O)O)N(C(=O)C2CCCCC2)[C@H]1c1cccnc1C [II-94]
EC50 [5]: 1000 to 10000 nM
EC50 [6]: 1000 to 10000 nM
Maximum % activity (with co-corrector) [7]: +++ (≥350)
Emax (CSE-HRP, without co-corrector): 100 to 200%
